Among the test systems are CCRF-CEM leukemia; HOP-62 NSCLC; KM12 colon; NCI-H23 lung; NCI-H522 lung; SN12C renal; SNB-19 CNS; TK-10 renal; U251 CNS; UO-31 renal.
Test in all cases: DTP human tumour cell line panel, 48 h

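How tested: cells in 96-well plates exposed to compound for 48 hours at five concentrations. GI50 is the concentration that inhibits growth by half. TGI: concentration producing complete growth inhibition.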 A value given as a limit tells only on which side of the number the result lay.

As for `Cc1n[nH]c(=S)n1/N=C/c1ccc(F)c(Oc2ccccc2)c1`, the GI50 (as a rule, the concentration that inhibits growth by half) in the assay with CCRF-CEM leukemia is 40.5 µM; with HOP-62 NSCLC, 49.4 µM; with KM12 colon it was 41.3 µM; in the assay on NCI-H23 lung, 42.2 µM; with NCI-H522 lung, 48.2 µM; in the assay on SN12C renal it was 95.6 µM. The GI50 is 55.9 µM in the assay with SNB-19 CNS, 43.9 µM with TK-10 renal, 50.3 µM with U251 CNS and 50 µM in the assay with UO-31 renal. For the same compound, the concentration for total growth inhibition (TGI) in the assay on CCRF-CEM leukemia, in the assay on HOP-62 NSCLC, in the assay on KM12 colon, with NCI-H23 lung, in the assay with NCI-H522 lung and in the assay on SN12C renal was > 100 µM each time. The TGI with SNB-19 CNS, with TK-10 renal, with U251 CNS and with UO-31 renal was > 100 µM throughout.

Regarding `O=C1C(=O)c2ccccc2-c2ccccc21`, the GI50 in the assay with CCRF-CEM leukemia is 1.5 µM; in the assay with HOP-62 NSCLC, 1.72 µM; in the assay on KM12 colon, 1.86 µM; with NCI-H23 lung, 1.68 µM; with NCI-H522 lung it was 1.75 µM; in the assay with SN12C renal, 1.61 µM. In addition, the GI50 is 1.45 µM in the assay on SNB-19 CNS, 1.82 µM with TK-10 renal, 1.67 µM in the assay on U251 CNS and 1.44 µM in the assay with UO-31 renal. In addition, the TGI (as a rule, the concentration at which net growth stops) is 4.85 µM with CCRF-CEM leukemia; 5.24 µM in the assay with HOP-62 NSCLC; 3.4 µM in the assay on KM12 colon; 3.99 µM in the assay with NCI-H23 lung; 4.12 µM in the assay on NCI-H522 lung; 3.29 µM in the assay on SN12C renal. Besides, the TGI in the assay on SNB-19 CNS stood at 2.95 µM; in the assay with TK-10 renal, 3.3 µM; with U251 CNS, 3.53 µM; in the assay with UO-31 renal it was 2.82 µM.

In the case of `O=[N+]([O-])c1cc(CCl)ccc1CCl`, the TGI is 3.14 µM in the assay on CCRF-CEM leukemia; 2.93 µM in the assay with HOP-62 NSCLC; 3.25 µM in the assay on KM12 colon; 5.1 µM in the assay with NCI-H23 lung; 3.98 µM in the assay on NCI-H522 lung; 2.97 µM in the assay with SN12C renal. In addition, the TGI with SNB-19 CNS was determined as 3.8 µM; with TK-10 renal it was 8.23 µM; with U251 CNS, 3.14 µM; in the assay on UO-31 renal, 3.18 µM.

On to `O=C(NCc1ccccc1)c1cc2cc(O)c(O)cc2cn1`, for which the TGI in the assay on CCRF-CEM leukemia is > 100 µM; in the assay on HOP-62 NSCLC it was 81.1 µM; with KM12 colon, > 100 µM; with NCI-H23 lung it was 46.8 µM; with NCI-H522 lung it was > 100 µM; with SN12C renal, > 100 µM. For the same compound, the TGI with SNB-19 CNS is > 100 µM; in the assay on TK-10 renal, > 100 µM; in the assay with U251 CNS, > 100 µM; in the assay on UO-31 renal, 56.6 µM.

In the case of `Cc1cc(O)c(C(c2cccnc2)c2c(O)cc(C)[nH]c2=O)c(=O)[nH]1`, the TGI in the assay with CCRF-CEM leukemia, with HOP-62 NSCLC, with KM12 colon, in the assay on NCI-H23 lung, in the assay with NCI-H522 lung and in the assay with SN12C renal was > 100 µM in each case. Also, the TGI with SNB-19 CNS, in the assay with TK-10 renal, in the assay on U251 CNS and in the assay with UO-31 renal was > 100 µM in each case.

As to `O=C1CCCC2=C(N1)C(=O)C=CC2=O`, the TGI was 28.5 µM with CCRF-CEM leukemia; 61.9 µM with HOP-62 NSCLC; 36.7 µM with KM12 colon; 56.7 µM in the assay with NCI-H23 lung; 34.8 µM with NCI-H522 lung; > 69.2 µM in the assay with SN12C renal. For the same compound, the TGI in the assay with SNB-19 CNS amounted to 61 µM; with TK-10 renal it was 56.9 µM; in the assay on U251 CNS, 58.8 µM; with UO-31 renal, 57.9 µM.

Consider `CCOc1ccccc1N=Nc1c(-c2ccccc2)nn(C(=O)CC(=O)Nc2cccc(Cl)c2)c1-c1ccccc1`, for which the TGI in the assay on CCRF-CEM leukemia, with HOP-62 NSCLC, in the assay with KM12 colon, in the assay on NCI-H23 lung, in the assay with NCI-H522 lung and with SN12C renal was > 100 µM throughout. For the same compound, the TGI in the assay with SNB-19 CNS, with TK-10 renal, in the assay on U251 CNS and in the assay with UO-31 renal was > 100 µM in each case.

Turning to `CCCc1cc2cc(-n3nc(C)c4c3CC(C)(C)CC4=O)cc(NC3CCC(O)CC3)c2c(=O)[nH]1` (stereo not given), the GI50 in the assay with CCRF-CEM leukemia was 0.278 µM; in the assay with HOP-62 NSCLC, 0.129 µM; in the assay on KM12 colon, 0.0986 µM; in the assay with NCI-H23 lung it was 0.0584 µM; in the assay on NCI-H522 lung, 0.257 µM; in the assay on SN12C renal, 0.0683 µM. Also, the GI50 in the assay on SNB-19 CNS is 0.523 µM; in the assay on TK-10 renal it was 0.0964 µM; in the assay with U251 CNS, 0.607 µM; with UO-31 renal it was 0.146 µM. Also, the TGI in the assay on CCRF-CEM leukemia, in the assay with HOP-62 NSCLC, in the assay on KM12 colon, in the assay with NCI-H23 lung, with NCI-H522 lung and with SN12C renal was > 100 µM each time. Besides, the TGI with SNB-19 CNS, in the assay on TK-10 renal, in the assay on U251 CNS and in the assay on UO-31 renal was > 100 µM throughout.

As to `Cn1ncc2c(/N=C/c3cccs3)[nH]c(=S)nc21`, the GI50 is 55.7 µM in the assay on CCRF-CEM leukemia; 52.9 µM in the assay with HOP-62 NSCLC; 28.8 µM with KM12 colon; 33.7 µM in the assay on NCI-H23 lung; > 68.2 µM in the assay on NCI-H522 lung; > 36 µM with SN12C renal. Further, the GI50 was 49.9 µM with SNB-19 CNS, 40.6 µM with TK-10 renal, 43.1 µM in the assay on U251 CNS and 58.6 µM in the assay with UO-31 renal. For the same compound, the TGI in the assay with CCRF-CEM leukemia was > 100 µM; with HOP-62 NSCLC, > 93.8 µM; with KM12 colon it was > 59.4 µM; in the assay with NCI-H23 lung, > 76.1 µM; with NCI-H522 lung, > 100 µM; with SN12C renal, > 69.2 µM. The TGI with SNB-19 CNS was > 100 µM; with TK-10 renal, > 85.2 µM; in the assay on U251 CNS, > 100 µM; in the assay with UO-31 renal, > 100 µM.

For the compound `COc1ccc(-c2cnc3ccnn3c2-c2cc(OC)c(OC)c(OC)c2)cc1`, the GI50 with CCRF-CEM leukemia was 3.52 µM; in the assay on HOP-62 NSCLC, 7.49 µM; in the assay on KM12 colon it was 1.67 µM; in the assay on NCI-H23 lung, 8.29 µM; in the assay with NCI-H522 lung, 0.857 µM; in the assay with SN12C renal, 5.4 µM. The GI50 in the assay with SNB-19 CNS is 5.16 µM; in the assay on TK-10 renal it was 27.3 µM; with U251 CNS it was 4.64 µM; with UO-31 renal, 4.25 µM. The TGI in the assay with CCRF-CEM leukemia, with HOP-62 NSCLC, in the assay on KM12 colon, in the assay on NCI-H23 lung, in the assay with NCI-H522 lung and in the assay with SN12C renal was > 100 µM in each case. The TGI with SNB-19 CNS, in the assay with TK-10 renal, in the assay on U251 CNS and with UO-31 renal was > 100 µM in each case.

For the compound `CCOC(=O)C(Cc1ccccc1)NC(=O)c1ccc(N=NN(C)C)cc1` (stereo not given), the TGI with CCRF-CEM leukemia, in the assay with HOP-62 NSCLC, with KM12 colon, in the assay on NCI-H23 lung, with NCI-H522 lung and with SN12C renal was > 100 µM throughout. The TGI in the assay with SNB-19 CNS, with TK-10 renal, with U251 CNS and with UO-31 renal was > 100 µM throughout.

Regarding `C/C(CC(=O)NNc1ccc([N+](=O)[O-])cc1)=N\Nc1ccc([N+](=O)[O-])cc1`, the GI50 was 4.76 µM in the assay with CCRF-CEM leukemia; 14.2 µM with HOP-62 NSCLC; 2.12 µM with KM12 colon; 15 µM in the assay with NCI-H23 lung; 0.776 µM with NCI-H522 lung; 17.8 µM in the assay on SN12C renal. Moreover, the GI50 was 29.7 µM with SNB-19 CNS, 13.4 µM in the assay with TK-10 renal, 10.5 µM in the assay with U251 CNS and 1.88 µM in the assay on UO-31 renal. The TGI in the assay with CCRF-CEM leukemia was > 100 µM; in the assay with HOP-62 NSCLC it was 38 µM; in the assay on KM12 colon it was > 100 µM; with NCI-H23 lung, 39.3 µM; in the assay on NCI-H522 lung, 7.92 µM; in the assay on SN12C renal, > 100 µM. The TGI with SNB-19 CNS is > 100 µM; with TK-10 renal, 35 µM; in the assay on U251 CNS, 33.2 µM; in the assay on UO-31 renal, > 100 µM.

For the compound `NC1=C(Cl)C(=O)c2ccc(S(N)(=O)=O)cc2C1=O`, the GI50 in the assay with CCRF-CEM leukemia was 0.374 µM; in the assay on HOP-62 NSCLC it was 0.251 µM; in the assay on KM12 colon it was 0.332 µM; with NCI-H23 lung, 0.176 µM; in the assay on NCI-H522 lung, 0.189 µM; in the assay on SN12C renal it was 0.172 µM. Moreover, the GI50 with SNB-19 CNS is 0.305 µM; in the assay with TK-10 renal it was 1.56 µM; with U251 CNS it was 0.184 µM; in the assay on UO-31 renal, 0.211 µM. In addition, the TGI was 2.77 µM in the assay on CCRF-CEM leukemia; 0.596 µM in the assay on HOP-62 NSCLC; 1.06 µM in the assay on KM12 colon; 0.517 µM in the assay with NCI-H23 lung; 0.403 µM in the assay on NCI-H522 lung; 0.34 µM with SN12C renal. The TGI in the assay with SNB-19 CNS turned out to be 1.05 µM; with TK-10 renal it was 2.95 µM; in the assay on U251 CNS, 0.871 µM; in the assay with UO-31 renal, 0.564 µM.

These data come from PubChem BioAssay (NCI).
